# Laboratory results taken from ChEMBL document CHEMBL4014316, “Amphiphilic Guanidinocalixarenes Inhibit Lipopolysaccharide (LPS)- and Lectin-Stimulated Toll-like Receptor 4 (TLR4) Signaling” (J Med Chem, 2017).
# Columns and labels:
# Type in all cases: cell-based
# Toll-like receptor 4 = Toll-like receptor 4 (Homo sapiens, UniProt O00206); experiment: Activation of TLR4 signaling (unknown origin) expressed in HEK-Blue cells after 30 mins by secreted embryonic alkaline phosphatase reporter gene assay; details: 0.5 h
# Sequence of Toll-like receptor 4 (O00206 whole entry): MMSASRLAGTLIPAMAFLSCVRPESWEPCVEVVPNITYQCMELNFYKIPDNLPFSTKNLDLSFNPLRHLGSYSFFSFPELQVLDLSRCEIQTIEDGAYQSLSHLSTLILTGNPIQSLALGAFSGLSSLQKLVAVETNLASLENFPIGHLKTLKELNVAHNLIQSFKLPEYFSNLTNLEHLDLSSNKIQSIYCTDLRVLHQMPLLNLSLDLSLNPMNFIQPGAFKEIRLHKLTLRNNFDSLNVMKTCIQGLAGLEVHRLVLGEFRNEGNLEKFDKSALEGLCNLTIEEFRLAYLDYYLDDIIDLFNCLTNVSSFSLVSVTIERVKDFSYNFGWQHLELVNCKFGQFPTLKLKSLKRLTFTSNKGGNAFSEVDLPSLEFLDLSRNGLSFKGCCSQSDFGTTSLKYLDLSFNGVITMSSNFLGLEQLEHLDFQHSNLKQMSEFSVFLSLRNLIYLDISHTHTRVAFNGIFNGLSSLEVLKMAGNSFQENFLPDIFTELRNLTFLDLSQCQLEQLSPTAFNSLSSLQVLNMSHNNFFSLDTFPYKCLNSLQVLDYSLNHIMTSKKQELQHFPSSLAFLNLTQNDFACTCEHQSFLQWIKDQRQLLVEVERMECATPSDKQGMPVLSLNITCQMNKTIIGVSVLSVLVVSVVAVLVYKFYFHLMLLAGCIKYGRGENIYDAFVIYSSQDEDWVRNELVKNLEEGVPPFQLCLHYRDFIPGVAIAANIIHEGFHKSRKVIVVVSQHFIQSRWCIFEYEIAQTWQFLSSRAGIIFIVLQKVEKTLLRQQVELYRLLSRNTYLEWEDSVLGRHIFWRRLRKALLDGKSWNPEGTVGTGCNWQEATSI
# [1] = biological target: Toll-like receptor 4/MD-2/CD14 (Homo sapiens, UniProt O00206+P08571+Q9Y6Y9); experiment: (§1) Binding affinity to CD14/MD2 (unknown origin) expressed in HEK-Blue cells co-expressing TLR4 assessed as inhibition of LPS-induced TLR4 signaling preincubated for 30 mins followed by LPS stimulation measured after overnight incubation by secreted embryonic alkaline phosphatase reporter gene assay
# Sequence of Toll-like receptor 4/MD-2/CD14 (O00206 whole entry): as above
# Sequence of Toll-like receptor 4/MD-2/CD14 (Q9Y6Y9 whole entry): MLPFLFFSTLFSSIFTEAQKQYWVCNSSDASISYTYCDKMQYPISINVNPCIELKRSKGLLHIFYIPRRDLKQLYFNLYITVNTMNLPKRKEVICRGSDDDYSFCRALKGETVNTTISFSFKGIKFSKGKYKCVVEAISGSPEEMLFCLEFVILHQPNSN
# Sequence of Toll-like receptor 4/MD-2/CD14 (P08571 whole entry): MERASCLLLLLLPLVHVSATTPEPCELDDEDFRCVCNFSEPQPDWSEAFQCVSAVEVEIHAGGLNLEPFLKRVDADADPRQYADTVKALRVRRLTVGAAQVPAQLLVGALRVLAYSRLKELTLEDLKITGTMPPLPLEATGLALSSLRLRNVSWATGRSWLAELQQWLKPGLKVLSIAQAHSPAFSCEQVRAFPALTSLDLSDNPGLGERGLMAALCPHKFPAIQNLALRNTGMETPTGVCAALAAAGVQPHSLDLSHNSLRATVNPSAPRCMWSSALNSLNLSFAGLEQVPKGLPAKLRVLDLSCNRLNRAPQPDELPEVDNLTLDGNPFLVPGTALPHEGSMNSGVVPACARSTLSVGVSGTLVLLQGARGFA
# [2] = biological target: Toll-like receptor 4/MD-2/CD14 (Homo sapiens) (UniProt O00206+Q9Y6Y9+P08571); experiment: as §1
# [3] = Cytotoxicity against HEK-Blue cells assessed as reduction in cell viability up to 10 uM measured after overnight incubation by MTT assay; details: human
Structure (SMILES),Activity (Toll-like receptor 4),IC50 [1],inhibition [2],Activity [3]
CC(C)(C)c1cc2c(OCCCCNC(=N)N)c(c1)Cc1cc(C(C)(C)C)cc(c1OCCCCNC(=N)N)Cc1cc(C(C)(C)C)cc(c1OCCCCNC(=N)N)Cc1cc(C(C)(C)C)cc(c1OCCCCNC(=N)N)C2.Cl.Cl.Cl.Cl,Not Active,0.2 µM,Dose-dependent effect,
CCCCCCOc1c2cc(NC(=N)N)cc1Cc1cc(NC(=N)N)cc(c1OCCCCCC)Cc1cc(NC(=N)N)cc(c1OCCCCCC)Cc1cc(NC(=N)N)cc(c1OCCCCCC)C2.Cl.Cl.Cl.Cl,Not Active,,,Non-Toxic
CCCOc1c2cc(NC(=N)N)cc1Cc1cc(NC(=N)N)cc(c1OCCC)Cc1cc(NC(=N)N)cc(c1OCCC)Cc1cc(NC(=N)N)cc(c1OCCC)C2.Cl.Cl.Cl.Cl,Not Active,,,Non-Toxic
CC(C)(C)c1cc2c(OCCCNC(=N)N)c(c1)Cc1cc(C(C)(C)C)cc(c1OCCCNC(=N)N)Cc1cc(C(C)(C)C)cc(c1OCCCNC(=N)N)Cc1cc(C(C)(C)C)cc(c1OCCCNC(=N)N)C2.Cl.Cl.Cl.Cl,Not Active,10 µM,Dose-dependent effect,
